Laboratory results as given in publication PMC4128255 (European journal of medicinal chemistry, 2014).
Each block holds one molecule with its values, some of them ahead of it. Ends that are not written are not given here. fluorescein = fluorescein label on the lysine ε-amino group

How the values were obtained:
[1] = biological target: eIF4E (GST-eIF4E) (Homo sapiens, UniProt P06730); assay: Fluorescence polarization; assay type: binding; conditions: for loss in binding affinity: relative to 4EGI-1, FP; for FP ratio: Table 3, IC50 of [Z]-4EGI-1/IC50 of compound in the same plate
eIF4E (GST-eIF4E), sequence (P06730 27-217 limits assumed): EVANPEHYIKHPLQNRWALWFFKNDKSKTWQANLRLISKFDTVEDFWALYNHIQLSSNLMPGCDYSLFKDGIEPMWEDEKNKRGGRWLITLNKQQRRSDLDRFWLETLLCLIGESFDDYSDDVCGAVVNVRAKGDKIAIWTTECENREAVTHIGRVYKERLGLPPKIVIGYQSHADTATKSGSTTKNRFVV

[2] = test system: cyclin D1, cyclin E, Survivin, β-Actin, α-Tubulin expression in CRL-2813 melanoma cells; assay: Western blot of regulatory and housekeeping protein expression in CRL-2813 cells; assay type: cell-based, Human; conditions: 6 hrs
[3] = biological target: GST-eIF4E fusion protein (recombinant, E. coli-expressed) (not stated (human or mouse cDNA cloned)) (UniProt P06730); assay: fluorescence polarisation
GST-eIF4E fusion protein (recombinant, E. coli-expressed) (not stated (human or mouse cDNA cloned)), sequence (P06730 27-217 limits assumed): as above

Molecule: 2-(2-(5-(3,4-Dichlorophenyl)thiazol-2-yl)hydrazono)-3-(4-hydroxy-3-nitrophenyl)propanoic acid [[Z]-11c]
- FP ratio [1]: 1.1

Molecule: O=C(O)/C(Cc1ccccc1[N+](=O)[O-])=N\Nc1nc(-c2ccc(O)cc2)cs1 [[Z]-12b, 2-(2-(4-(4-Hydroxyphenyl)thiazol-2-yl)hydrazono)-3-(2-nitrophenyl)propanoic acid]
- expression of housekeeping proteins β-Actin and α-Tubulin [2]: no effect
- expression of regulatory proteins cyclin D1, cyclin E, and Survivin [2]: no effect

Molecule: 4-(2-Carboxy-2-(2-(5-(3,4-dichlorophenyl)thiazol-2-yl)hydrazono)ethyl)-3-nitrobenzoic acid [[Z]-11b]
- FP ratio [1]: 0.9

Molecule: 2-(2-(5-(3,4-Dichlorophenyl)thiazol-2-yl)hydrazono)-3-(4-hydroxy-3-nitrophenyl)propanoic acid [[E]-11c]
- FP ratio [1]: 0.9

Molecule: O=C(O)/C(Cc1ccccc1[N+](=O)[O-])=N\Nc1nc(-c2ccc(Cl)c(Cl)c2)cs1 [[Z]-4EGI-1, 2-(2-(4-(3,4-Dichlorophenyl)thiazol-2-yl)hydrazono)-3-(2-nitrophenyl)propanoic acid, reference compound]
- expression of housekeeping proteins β-Actin and α-Tubulin [2]: not affected
- expression of regulatory proteins cyclin D1, cyclin E, and Survivin [2]: markedly reduced

Molecule: KYTYDELFQLK(fluorescein)-OH [fluorescein labeled eIF4G-derived peptide …(ε-Flu)-OH]
- Kd [3]: 3000 nM

Now from value to molecule:

- loss in binding affinity [1]: 30–40%
Molecule: O=C(O)C(Cc1ccc(O)cc1)=NNc1nc(-c2ccc(Cl)c(Cl)c2)cs1 [Compound 10d, 2-(2-(4-(3,4-Dichlorophenyl)thiazol-2-yl)hydrazono)-3-(4-hydroxyphenyl)propanoic acid]

- FP ratio [1]: 0.6
Molecule: 4-(2-Carboxy-2-(2-(5-(3,4-dichlorophenyl)thiazol-2-yl)hydrazono)ethyl)-3-nitrobenzoic acid [[E]-11b]

- FP ratio [1]: 1.0
Molecule: 3-(4-Amino-3-nitrophenyl)-2-(2-(5-(3,4-dichlorophenyl)thiazol-2-yl)hydrazono)propanoic acid [[E]-11a]

- loss in binding affinity [1]: 30–40%
Molecule: O=C(O)C(Cc1ccc(C(F)(F)F)cc1)=NNc1nc(-c2ccc(Cl)c(Cl)c2)cs1 [Compound 10i, 2-(2-(4-(3,4-Dichlorophenyl)thiazol-2-yl)hydrazono)-3-(4-(trifluoromethyl)phenyl)propanoic acid]
